Experimental data taken from the supplement of paper PMC10307832.

Columns and labels:
Assay in all cases: relative viability (nuclei count vs DMSO), 5 days (fraction); higher = more cells survive
[1] = compound: CN(C)CC1=CC(=CC=C1)N=C(C2=CC=CC=C2)C3=C(NC4=C3C=CC(=C4)C(=O)N(C)C)O + CC(=O)Nc1cccc(-n2c(=O)n(C3CC3)c(=O)c3c(Nc4ccc(I)cc4F)n(C)c(=O)c(C)c32)c1 [Trametinib] (partner 0.02 µM)
In short: (§1)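 The day after seeding in 1536-well plates, lung cancer cell lines were treated by pin tool with a single drug, or with a fixed anchor-drug dose together with five library-drug doses (not always all listed) in √10 steps. After 5 days, a combined fix-and-stain solution (final 0.05% Triton X-100, 1% formaldehyde, 1 ug/ml Hoechst) was added. Nuclei counted on 4× images gave relative viability as treated counts over vehicle counts, reported as the median of duplicate plates.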

[2] = compound: CN(C)CC1=CC(=CC=C1)N=C(C2=CC=CC=C2)C3=C(NC4=C3C=CC(=C4)C(=O)N(C)C)O + CC1(C)CCC(c2ccc(Cl)cc2)=C(CN2CCN(c3ccc(C(=O)NS(=O)(=O)c4ccc(N[C@H](CCN5CCOCC5)CSc5ccccc5)c(S(=O)(=O)C(F)(F)F)c4)cc3)CC2)C1 [Navitoclax] (partner 0.5 µM)
In short: as §1

[3] = compound: CN(C)CC1=CC(=CC=C1)N=C(C2=CC=CC=C2)C3=C(NC4=C3C=CC(=C4)C(=O)N(C)C)O + N=C(N)NC(=N)NCCc1ccccc1 [Phenformin] (partner 250 µM)
In short: as §1

[4] = compound: CN(C)CC1=CC(=CC=C1)N=C(C2=CC=CC=C2)C3=C(NC4=C3C=CC(=C4)C(=O)N(C)C)O + Nc1nc2[nH]cc(CCc3ccc(C(=O)N[C@@H](CCC(=O)O)C(=O)O)cc3)c2c(=O)[nH]1 [Pemetrexed] (partner 0.2 µM)
In short: as §1

| Cell Line | relative viability ([1]; first compound 0.08 µM) | relative viability ([1]; first compound 0.253 µM) | relative viability ([1]; first compound 0.8 µM) | relative viability ([1]; first compound 2.53 µM) | relative viability ([1]; first compound 8 µM) | relative viability ([2]; first compound 0.08 µM) | relative viability ([2]; first compound 0.253 µM) | relative viability ([2]; first compound 0.8 µM) | relative viability ([2]; first compound 2.53 µM) | relative viability ([2]; first compound 8 µM) | relative viability ([3]; first compound 0.08 µM) | relative viability ([3]; first compound 0.253 µM) | relative viability ([3]; first compound 0.8 µM) | relative viability ([3]; first compound 2.53 µM) | relative viability ([3]; first compound 8 µM) | relative viability ([4]; first compound 0.08 µM) | relative viability ([4]; first compound 0.253 µM) | relative viability ([4]; first compound 0.8 µM) | relative viability ([4]; first compound 2.53 µM) | relative viability ([4]; first compound 8 µM) |
| --- | --- | --- | --- | --- | --- | --- | --- | --- | --- | --- | --- | --- | --- | --- | --- | --- | --- | --- | --- | --- |
| LOU-NH91 | 0.76 | 0.807 | 0.759 | 0.818 | 0.788 | 0.756 | 0.687 | 0.548 | 0.653 | 0.638 | 0.697 | 0.652 | 0.548 | 0.714 | 0.699 | 0.383 | 0.367 | 0.465 | 0.349 | 0.465 |
| NCI-H1734 | 0.625 | 0.701 | 0.735 | 0.698 | 0.579 | 0.821 | 0.836 | 0.889 | 0.844 | 0.644 | 0.354 | 0.408 | 0.385 | 0.376 | 0.368 | 0.405 | 0.441 | 0.436 | 0.398 | 0.436 |
| NCI-H1792 | 0.473 | 0.371 | 0.485 | 0.501 | 0.425 | 0.606 | 0.594 | 0.573 | 0.61 | 0.662 | 0.255 | 0.211 | 0.357 | 0.179 | 0.231 | 0.872 | 0.826 | 0.702 | 0.673 | 0.838 |
| H3255 | 0.64 | 0.642 |  | 0.66 | 0.692 | 0.608 | 0.457 | 0.514 | 0.545 | 0.552 | 0.44 | 0.356 | 0.338 | 0.392 | 0.371 | 0.592 | 0.52 | 0.543 | 0.592 | 0.592 |
| NCI-H2087 | 0.21 | 0.247 | 0.201 | 0.196 | 0.166 | 1.02 | 0.942 | 1.17 | 1.03 | 0.9 | 0.478 | 0.522 | 0.403 | 0.48 | 0.31 | 0.629 | 0.644 | 0.617 | 0.721 | 0.68 |
| BEN | 1.01 | 0.799 | 1.2 | 1.01 | 0.941 | 0.0778 | 0.06 | 0.0663 | 0.0535 | 0.0691 | 0.233 | 0.274 | 0.238 | 0.223 | 0.267 | 0.778 | 0.79 | 0.707 | 0.78 | 0.795 |
| COR-L23 | 0.688 | 0.551 | 0.589 | 0.517 | 0.567 | 1.02 | 1.07 | 1.07 | 0.77 | 0.791 | 0.495 | 0.413 | 0.402 | 0.423 | 0.421 | 0.205 | 0.2 | 0.193 | 0.196 | 0.19 |
| HCC-366 | 0.47 | 0.323 | 0.325 | 0.339 | 0.24 | 0.969 | 1.03 | 1.07 | 1.07 | 0.901 | 0.648 | 0.612 | 0.641 | 0.566 | 0.601 | 0.141 | 0.17 | 0.265 | 0.164 | 0.25 |
| NCI-H2170 | 0.899 | 0.892 | 0.758 | 0.917 | 0.809 | 0.64 | 0.583 | 0.307 | 0.565 | 0.36 | 0.404 | 0.4 | 0.408 | 0.381 | 0.384 | 0.245 | 0.281 | 0.29 | 0.264 | 0.271 |
| SK-LU-1 | 0.448 | 0.446 | 0.459 | 0.445 | 0.385 | 1.05 | 0.898 | 0.778 | 0.651 | 0.791 | 0.41 | 0.573 | 0.597 | 0.473 | 0.39 | 1.01 | 0.941 | 1.03 | 0.961 | 0.781 |
| NCI-H2023 | 0.639 | 0.557 | 0.556 | 0.545 | 0.471 | 1.02 | 0.97 | 0.952 | 0.872 | 0.984 | 0.377 | 0.392 | 0.405 | 0.338 | 0.342 | 0.228 | 0.251 | 0.238 | 0.19 | 0.246 |
| NCI-H1651 | 0.857 | 0.819 | 0.863 | 0.851 | 0.788 | 1.11 | 1.11 | 1.13 | 1.11 | 0.934 | 0.346 | 0.343 | 0.349 | 0.292 | 0.329 | 0.565 | 0.564 | 0.639 | 0.558 | 0.668 |
| EKVX | 0.32 | 0.389 |  | 0.432 | 0.438 | 0.908 | 0.82 | 0.956 | 0.885 | 1 | 0.239 | 0.251 | 0.221 | 0.247 | 0.241 | 0.41 | 0.362 |  | 0.396 | 0.418 |
| NCI-H1993 | 0.464 | 0.513 |  | 0.53 | 0.592 | 0.935 | 1.02 | 0.885 | 0.933 | 1.09 | 0.504 | 0.498 | 0.586 | 0.507 | 0.493 | 0.684 | 0.576 |  | 0.495 | 0.634 |
| SW 1573 | 0.56 | 0.572 | 0.587 | 0.637 | 0.515 | 1.01 | 0.822 | 0.844 | 0.906 | 1.01 | 0.322 | 0.31 | 0.378 | 0.294 | 0.31 | 0.823 | 0.83 | 0.987 | 0.792 | 0.768 |
| LXF-289 | 0.669 | 0.628 | 0.643 | 0.573 | 0.655 | 0.959 | 0.911 | 0.946 | 0.945 | 0.809 | 0.499 | 0.489 | 0.518 | 0.518 | 0.473 | 0.937 | 0.836 | 0.904 | 0.885 | 0.827 |
